From patent US12358920B2, “Substituted pyrrolo[2,3-d]pyrimidines as selective CDK 4/6 inhibitors” (LUNELLA BIOTECH, INC., priority 2019, dated 2025)

Tests used:
MCF7 [1] = assay: Mammosphere formation assay (3D-mammosphere assay); assay type: cell-based, human; details: for SI (mammosphere/monolayer MCF7): mammosphere selectivity index, ratio between IC50 values in the 3D and 2D assays against MCF7; for inhibition of MCF7 cells in the mammosphere assay compared to parent compound: concentrations from 1 μM to 100 μM
Excerpt: As used in the tables, “IC50 (MCF7 mammosphere)” refers to the half maximal inhibitory concentration in the 3D-mammosphere assay, using the ER+ breast cancer cell line, MCF7. The term “IC50 (MCF7 monolayer)” refers to the half maximal inhibitory concentration in the 2D-cell viability assay, using the ER+ breast cancer cell line, MCF7. The term “IC50 (BJ1 monolayer)” refers to the half maximal inhibitory concentration in the 2D-cell viability assay, using the immortalized non-tumoral fibroblast cell line, hTERT-BJ1. The term “SI (mammosphere/monolayer MCF7)” refers to the mammosphere selectivity index, a ratio between IC50 values comparing the biological activity in the 3D and 2D assays against MCF7. The term “SI (BJ1/MCF7 monolayer)” refers to the cancer selectivity index, a ratio between IC50 values comparing the biological activity in the cell viability assays against MCF7 and hTERT-BJ1.
FIGS. 1-3 are dose-response curves for various compounds described herein, using the mammosphere assay. The assay was performed using the MCF7 cell line. The curves are plotted as a mean of two independent experiments, and the standard deviation for each point is represented by vertical bars. The inhibition percentage is shown as a function of the log of the concentration (μM). […] Similar effects are expected for compounds having the general formula [1D].
With respect to cell culture and reagents, the human breast adenocarcinoma cell line (MCF-7) was from the American Type Culture Collection (ATCC). hTERT-BJ1 cells were from Clontech, Inc. MCF-7 and hTERT-BJ1 cells were grown in DMEM supplemented with 10% fetal bovine serum, GlutaMAX and 1% penicillin-streptomycin and incubated at 37C in a humidified 5% CO2 incubator. The medium was changed 2-3 times/week.
Mammosphere formation assay: A single cell suspension was prepared using enzymatic (lx Trypsin-EDTA, Sigma Aldrich, cat. #T3924), and manual disaggregation (25 gauge needle). Five thousand cells were plated with in mammosphere medium (DMEM-F12/B27/20 ng/ml EGF/PenStrep), under non-adherent conditions, in six wells plates coated with 2-hydroxyethylmethacrylate (poly-HEMA, Sigma, cat. #P3932). Cells were grown for 5 days and maintained in a humidified incubator at 37° C. at an atmospheric pressure in 5% (v/v) carbon dioxide/air. After 5 days, 3D spheroids with a diameter greater than 50 μm were counted using a microscope, fitted with a graticule eye-piece, and the percentage of cells which formed spheroids was calculated and normalized to one (1=100% MFE; mammosphere forming efficiency). Mammosphere assays were performed in triplicate and repeated three times independently.

hTERT-BJ1 = assay: Hoechst-based 2D-cell viability assay, hTERT-BJ1 monolayer; set-up: species or system human; details: for toxicity in the non-tumoral cell line hTERT-BJ1: up to the concentration of 90 μM
Excerpt: As used in the tables, “IC50 (MCF7 mammosphere)” refers to the half maximal inhibitory concentration in the 3D-mammosphere assay, using the ER+ breast cancer cell line, MCF7. The term “IC50 (MCF7 monolayer)” refers to the half maximal inhibitory concentration in the 2D-cell viability assay, using the ER+ breast cancer cell line, MCF7. The term “IC50 (BJ1 monolayer)” refers to the half maximal inhibitory concentration in the 2D-cell viability assay, using the immortalized non-tumoral fibroblast cell line, hTERT-BJ1. The term “SI (mammosphere/monolayer MCF7)” refers to the mammosphere selectivity index, a ratio between IC50 values comparing the biological activity in the 3D and 2D assays against MCF7. The term “SI (BJ1/MCF7 monolayer)” refers to the cancer selectivity index, a ratio between IC50 values comparing the biological activity in the cell viability assays against MCF7 and hTERT-BJ1. With respect to cell culture and reagents, the human breast adenocarcinoma cell line (MCF-7) was from the American Type Culture Collection (ATCC). hTERT-BJ1 cells were from Clontech, Inc. MCF-7 and hTERT-BJ1 cells were grown in DMEM supplemented with 10% fetal bovine serum, GlutaMAX and 1% penicillin-streptomycin and incubated at 37C in a humidified 5% CO2 incubator. The medium was changed 2-3 times/week. A Hoechst-based viability assay was used to characterize the selectivity of compounds according to the present approach, for the preferential targeting of cancer cells. Briefly, MCF7 cell monolayers were treated with a compound at concentrations ranging from 1 μM to 100 μM, for a period of one day. Cell viability was assessed using Hoechst 33342, a nuclear dye that stains DNA in live cells. The viability of normal human fibroblasts (hTERT-BJ1) treated with the compounds described herein was also assessed in parallel. Quantitation was performed with a plate-reader.

MCF7 [2] = assay: Hoechst-based 2D-cell viability assay, MCF7 monolayer; set-up: species or system human
Excerpt: As used in the tables, “IC50 (MCF7 mammosphere)” refers to the half maximal inhibitory concentration in the 3D-mammosphere assay, using the ER+ breast cancer cell line, MCF7. The term “IC50 (MCF7 monolayer)” refers to the half maximal inhibitory concentration in the 2D-cell viability assay, using the ER+ breast cancer cell line, MCF7. The term “IC50 (BJ1 monolayer)” refers to the half maximal inhibitory concentration in the 2D-cell viability assay, using the immortalized non-tumoral fibroblast cell line, hTERT-BJ1. The term “SI (mammosphere/monolayer MCF7)” refers to the mammosphere selectivity index, a ratio between IC50 values comparing the biological activity in the 3D and 2D assays against MCF7. The term “SI (BJ1/MCF7 monolayer)” refers to the cancer selectivity index, a ratio between IC50 values comparing the biological activity in the cell viability assays against MCF7 and hTERT-BJ1. […] Cell viability was assessed using Hoechst 33342, a nuclear dye that stains DNA in live cells. The viability of normal human fibroblasts (hTERT-BJ1) treated with the compounds described herein was also assessed in parallel. Quantitation was performed with a plate-reader.

Row | Structure (SMILES) | SI (mammosphere/monolayer MCF7) (MCF7 [1]) | toxicity in the non-tumoral cell line hTERT-BJ1 (hTERT-BJ1) | inhibition of MCF7 cells in the mammosphere assay compared to parent compound (MCF7 [1]) | also measured
1 | CC(=O)c1c(C)c2cnc(Nc3ccc(N4CCNCC4)cn3)nc2n(C2CCCC2)c1=O [Palbociclib, 6-acetyl-8-cyclopentyl-5-methyl-2-(5-piperazin-1-yl-pyridin-2-ylamino)-8H-pyrido[2,3-d]pyrimidin-7-one, reference compound] | non-selective | non-toxic |  | 
2 | CCN1CCN(Cc2ccc(Nc3ncc(F)c(-c4cc(F)c5nc(C)n(C(C)C)c5c4)n3)nc2)CC1 [Abemaciclib, N-[5-[(4-ethylpiperazin-1-yl)methyl]pyridin-2-yl]-5-fluoro-4-(7-fluoro-2-methyl-3-propan-2-ylbenzimidazol-5-yl)pyrimidin-2-amine, reference compound] | >250 |  |  | IC50 (hTERT-BJ1; Homo sapiens, Table 3, unit inferred, 2D-cell viability assay, hTERT-BJ1): 30 ± 6 µM
3 | CN(C)C(=O)c1cc2cnc(Nc3ccc(N4CCNCC4)cn3)nc2n1C1CCCC1 [Ribociclib, 7-cyclopentyl-N,N-dimethyl-2-[(5-piperazin-1-ylpyridin-2-yl)amino]pyrrolo[2,3-d]pyrimidine-6-carboxamide] |  | non-toxic |  | potency on hTERT-BJ1 compared to Compound [1C] (dose-response curves, FIG. 7) (hTERT-BJ1; Hoechst staining assay, hTERT-BJ1): more potent at most concentrations tested
4 | CCCCCCCCCCCCCC(=O)N1CCN(c2ccc(Nc3ncc4cc(C(=O)N(C)C)n(C5CCCC5)c4n3)nc2)CC1 [Compound [1C], 7-cyclopentyl-N,N-dimethyl-2-[[5-(4-tetradecanoylpiperazin-1-yl)-2-pyridyl]amino]pyrrolo[2,3-d]pyrimidine-6-carboxamide] |  | non-toxic | remarkably improved inhibition | improvement in potency in the 3D-mammosphere assay compared to the parent compound (MCF7 [1]; IC50 ratio vs. Ribociclib): 7 fold; potency against MCF7 cells compared to parent compound (dose-response curves, FIG. 4) (MCF7 [2]; Hoechst staining assay, MCF7, each concentration): more potent
5 | CCCCCCCCCCCCCC(=O)N1CCN(c2ccc(Nc3ncc4c(C)c(C(C)=O)c(=O)n(C5CCCC5)c4n3)nc2)CC1 [Compound [2C], 6-acetyl-8-cyclopentyl-5-methyl-2-[[5-(4-tetradecanoylpiperazin-1-yl)-2-pyridyl]amino]pyrido[2,3-d]pyrimidin-7-one] |  | non-toxic | remarkably improved inhibition | toxicity in the 2D-cell viability assay (MCF7 [2]; MCF7 monolayer, up to a concentration of 30 μM): non-toxic
